Data reported in patent US20070142304A1, “Diphenylazetidinone derivatives possessing chloesterol absorption inhibitory activity” (priority 2003, published 2007).

System: 14C-cholesterol absorption
Test: In Vivo Testing of Cholesterol Absorption Inhibitors (A)
Settings: 5 μmol/kg by gavage, C57BL/6 female mice, procedure A
Protocol: In Vivo Testing of Cholesterol Absorption Inhibitors (A)
C57BL/6 female mice were maintained on regular chow diet and housed in individual cages to collect faeces. Mice were fasted for 3 hours and then gavaged with vehicle or compound. Half an hour later the mice were gavaged with radiolabelled cholesterol. Six hours after the ^14C-cholesterol gavage blood samples were taken via the tail and plasma prepared to determine how much cholesterol were absorbed. 24 hours after the gavage of ^14C-cholesterol the mice were bled and plasma were prepared for analysis. Faeces were collected for 24 hours to assess absorption efficiency.

Compound	inhibition of 14C-cholesterol absorption
CC(C)CC(NC(=O)COc1ccc(C2C(CCC(O)c3ccc(F)cc3)C(=O)N2c2ccc(F)cc2)cc1)C(=O)NC(Cc1ccccc1)C(=O)O [Example 3, 1-(4-Fluorophenyl)-3-(R)-[3-(4-fluorophenyl)-3-hydroxypropyl]-4-(S)-{4-[N-((R)-1-{N-[1-(R)-(carboxy)-2-(phenyl)ethyl]carbamoyl}-3-methylbutyl)carbamoylmethoxy]phenyl}azetidin-2-one]	75%
O=C(COc1ccc(C2C(CCC(O)c3ccc(F)cc3)C(=O)N2c2ccc(F)cc2)cc1)NC(Cc1ccccc1)C(=O)NC(CO)C(=O)O [Example 4, 1-(4-Fluorophenyl)-3-(R)-[3-(4-fluorophenyl)-3-hydroxypropyl]-4-(S)-[4-(N-{1-(R)-[N-(1-(S)-carboxy-2-hydroxyethyl)carbamoyl]-2-phenylethyl}carbamoylmethoxy)phenyl]azetidin-2-one]	58%
